The test system of data set [1] is FGF19. To be noted: cynomolgus monkey, in vivo, po, 300 mg/kg.
Protocol: In vivo pharmacodynamics of a representative compound of Formula (I) and a comparative example compound were determined as follows.
Each dosing group consisted of three male Cynomolgus monkeys. At dosing, the animals weighed between 2.5 and 4.4 kg.
The test articles were administered to the monkeys via oral gavage at 5 mL/kg. Prior to withdrawal, the gavage tube was flushed with approximately 10 mL of water.
Venous blood samples were taken at specified time points after dosing from each animal. The blood samples were collected and transferred into tubes containing potassium (K2) EDTA anticoagulant.
The FGF19 ELISA assay kit from BioVendor (product number RD191107200R) was used to determine FGF19 concentrations in the collected blood samples.
An aliquot of 50 μL of each plasma sample from the 10 and 30 mg/kg dosing groups and the t=0 samples from the 100 and 300 mg/kg groups were treated with 200 μL of acetonitrile (ACN) containing internal standard. […] Samples exceeding the calibration range of the instrument were diluted and re-analyzed. […]
An API 5000 triple quadrupole mass spectrometer from AB Sciex, Foster City, Calif. was used in multiple reaction monitoring mode to quantify the compounds.
Data set [2] is described as follows: Metabolite ID assay in human liver microsomes. The format is in vitro ADME. To be noted: human liver microsomes 1 mg/mL, 1 mM NADPH, 0, 30, 60 minutes. The protocol: The metabolic stability of Example 3 and Comparative Example 1 in human liver microsomes was conducted according to the following procedure. Human liver microsomes (35 μL protein concentration 20 mg/mL), 350 μL of 100 mM potassium phosphate buffer (pH 7.4), 245 μL of deionized water and 0.7 μL of compound stock solution (5 mM) were combined in a 1.5 mL microcentrifuge tube. The tube was sealed and gently vortexed for 10 seconds, then placed in an Eppendorf ThermoMixer C and pre-warmed at 37° C. with shaking at 1100 rpm for 5 minutes.
NADPH solution (70 μL; 10 mM in water) was added while shaking, the mixture was aspirated several times with pipet, and 200 μL was removed to a fresh 1.5 mL microcentrifuge tube on ice containing 200 μL of cold acetonitrile. […]
The chilled aliquots were centrifuged at 14,300 rpm in a microcentrifuge for 10 minutes at 10° C., then the supernatant was transferred to a deepwell (1 mL) 96 well plate and sealed with a silicon mat. […] 20 μL samples were analyzed by UPLC-MS in order to identify and quantify the metabolites (Agilent 1290 G4220 binary pump UPLC with Agilent G1316 TCC column oven; Waters Acquity UPLC BEH C18 (130 Å pore size, 1.7 μm particle size, 2.1×50 mm) column held at 40° C.; Agilent 1290 G4212 DAD diode array with wavelength range 190 to 400 nm; Thermo Electron Orbitrap Elite mass spectrometer in FTMS positive mode). […]
On the technique in general: Liver microsomes are vesicles of endoplasmic reticulum, rich in cytochrome P450 enzymes.

With `O=C(O)c1cnc(N2CC(O)(c3ccc(OCc4c(-c5c(Cl)cc(F)cc5Cl)noc4C4CC4)cc3Cl)C2)c(F)c1` [Example 3, 6-(3-(2-chloro-4-((5-cyclopropyl-3-(2,6-dichloro-4-fluorophenyl)isoxazol-4-yl)methoxy)phenyl)-3-hydroxyazetidin-1-yl)-5-fluoronicotinic acid], the “maximal plasma AUC achieved” value in data set [1] is “comparable”. In data set [1] (male), the “plasma FGF19 Cmax” value worked out at 0.016 µg/mL. In the case of `O=C(O)c1cnc(N2CC(O)(c3ccc(OCc4c(-c5c(Cl)cccc5Cl)noc4C4CC4)cc3Cl)C2)c(F)c1` [Comparative Example 1], the “formation of diol metabolite M1” value in data set [2] is “metabolized to a diol compound (M1)”.

These data come from patent publication US10981881B2, “FXR (NR1H4) modulating compounds” (Gilead Sciences, Inc., priority 2016, dated 2021).
